Test results published in patent US9580431B2, “Inhibitors of human immunodeficiency virus replication” (priority 2013, dated 2017).

Tested on: recombinant NL-Rluc virus
Experiment: microbe, parasite or virus in culture
Type: cell-based, HIV
Details: Human immunodeficiency virus 1, MT2, 120 h

With `Cc1nc2cc(-n3cc(Cc4ccccc4)cn3)nn2c(N2CCC(C)(C)CC2)c1[C@H](OC(C)(C)C)C(=O)O` [Example 33, (S)-2-(2-(4-Benzyl-1H-pyrazol-1-yl)-7-(4,4-dimethylpiperidin-1-yl)-5-methylpyrazolo[1,5-a]pyrimidin-6-yl)-2-(tert-butoxy)acetic acid] the EC50 was 11 nM.

Same assay, conditions: Human immunodeficiency virus 1, MT2, 120 h, NL-RLuc virus infecting MT-2 cells, 5 days of incubation, luciferase readout; at least 2 experiments; serum condition not given; read-out: EC50

Point of comparison: `Cc1nc2cc(-n3cnc(Cc4ccccc4)c3)nn2c(N2CCC(C)(C)CC2)c1[C@H](OC(C)(C)C)C(=O)O` [Example 34, (S)-2-(2-(4-Benzyl-1H-imidazol-1-yl)-7-(4,4-dimethylpiperidin-1-yl)-5-methylpyrazolo[1,5-a]pyrimidin-6-yl)-2-(tert-butoxy)acetic acid], EC50 26 nM. Against it:
- Cc1nc2cc(-n3nccc3Cc3ccccc3)nn2c(N2CCC(C)(C)CC2)c1[C@H](OC(C)(C)C)C(=O)O [Example 35, (S)-2-(2-(5 Benzyl-1H-pyrazol-1-yl)-7-(4,4-dimethylpiperidin-1-yl)-5-methylpyrazolo[1,5-a]pyrimidin-6-yl)-2-(tert-butoxy)acetic acid] — 22-fold higher, 573 nM
- Cc1nc2cc(-n3ccc(Cc4ccccc4)n3)nn2c(N2CCC(C)(C)CC2)c1[C@H](OC(C)(C)C)C(=O)O [Example 36, (S)-2-(2-(3-Benzyl-1H-pyrazol-1-yl)-7-(4,4-dimethylpiperidin-1-yl)-5-methylpyrazolo[1,5-a]pyrimidin-6-yl)-2-(tert-butoxy)acetic acid] — 3.2-fold higher, 84 nM
- C=CCOc1ccccc1Cc1cnn(-c2cc3nc(C)c([C@H](OC(C)(C)C)C(=O)O)c(N4CCC(C)(OCC=C)CC4)n3n2)c1 [Example 37, (S)-2-(7-(4-(Allyloxy)-4-methylpiperidin-1-yl)-2-(4-(2-(allyloxy)benzyl)-1H -pyrazol-1-yl)-5-methylpyrazolo[1,5-a]pyrimidin-6-yl)-2-(tert-butoxy)acetic acid] — 2.4-fold lower, 11 nM
- Cc1nc2cc(-n3cc(Cc4ccccc4)c(Cl)n3)nn2c(N2CCC(C)(C)CC2)c1[C@H](OC(C)(C)C)C(=O)O [Example 38, (S)-2-(2-(4-Benzyl-3-chloro-1H-pyrazol-1-yl)-7-(4,4-dimethylpiperidin-1-yl)-5-methylpyrazolo[1,5-a]pyrimidin-6-yl)-2-(tert-butoxy)acetic acid] — within 1.5-fold, 23 nM
- Cc1nc2cc(-c3cnn(Cc4ccccc4)c3)nn2c(N2CCC(C)(C)CC2)c1[C@H](OC(C)(C)C)C(=O)O [Example 39, (S)-2-(2-(1-Benzyl-1H-pyrazol-4-yl)-7-(4,4-dimethylpiperidin-1-yl)-5-methylpyrazolo[1,5-a]pyrimidin-6-yl)-2-(tert-butoxy)acetic acid] — 3.7-fold lower, 7 nM
- C=CCOC1(C)CCN(c2c([C@H](OC(C)(C)C)C(=O)O)c(C)nc3cc(-c4cnn(Cc5ccccc5)c4)nn23)CC1 [Example 40, (S)-2-(7-(4-(Allyloxy)-4-methylpiperidin-1-yl)-2-(1-benzyl-1H-pyrazol-4-yl)-5-methylpyrazolo[1,5-a]pyrimidin-6-yl)-2-(tert-butoxy)acetic acid] — 2.4-fold lower, 11 nM
- C=CCOC1(C)CCN(c2c([C@H](OC(C)(C)C)C(=O)O)c(C)nc3cc(-c4cn(Cc5ccccc5)cn4)nn23)CC1 [Example 41, (S)-2-(7-(4-(Allyloxy)-4-methylpiperidin-1-yl)-2-(1-benzyl-1H-imidazol-4-yl)-5-methylpyrazolo[1,5-a]pyrimidin-6-yl)-2-(tert-butoxy)acetic acid] — 1.7-fold lower, 15 nM

Same assay, conditions: NL-RLuc virus infecting MT-2 cells, 5 days of incubation, luciferase readout; at least 2 experiments; serum condition not given; read-out: EC50

Point of comparison: `Cc1nc2cc(N3CC(Cc4ccccc4)OC3=O)nn2c(N2CCC(C)(C)CC2)c1[C@H](OC(C)(C)C)C(=O)O` (stereo partly drawn) [Example 30, (2S)-2-(2-(5-Benzyl-2-oxooxazolidin-3-yl)-7-(4,4-dimethylpiperidin-1-yl)-5-methylpyrazolo[1,5-a]pyrimidin-6-yl)-2-(tert-butoxy)acetic acid], EC50 16 nM. Against it:
- Cc1nc2cc(N3C(=O)OCC3Cc3ccccc3)nn2c(N2CCC(C)(C)CC2)c1[C@H](OC(C)(C)C)C(=O)O (stereo partly drawn) [Example 27, (2S)-2-(2-(4-Benzyl-2-oxooxazolidin-3-yl)-7-(4,4-dimethylpiperidin-1-yl)-5-methylpyrazolo[1,5-a]pyrimidin-6-yl)-2-(tert-butoxy)acetic acid] — 30-fold higher, 478 nM
- Cc1nc2cc(N3C(=O)OCC3Cc3ccccc3)nn2c(N2CCC(C)(C)CC2)c1[C@H](OC(C)(C)C)C(=O)O (stereo partly drawn) [Example 28, (2S)-2-(2-(4-Benzyl-2-oxooxazolidin-3-yl)-7-(4,4-dimethylpiperidin-1-yl)-5-methylpyrazolo[1,5-a]pyrimidin-6-yl)-2-(tert-butoxy)acetic acid] — 9.5-fold higher, 152 nM
- Cc1nc2cc(N3CC(Cc4ccccc4)OC3=O)nn2c(N2CCC(C)(C)CC2)c1[C@H](OC(C)(C)C)C(=O)O (stereo partly drawn) [Example 29, (2S)-2-(2-(5-Benzyl-2-oxooxazolidin-3-yl)-7-(4,4-dimethylpiperidin-1-yl)-5-methylpyrazolo[1,5-a]pyrimidin-6-yl)-2-(tert-butoxy)acetic acid] — 2.7-fold lower, 6 nM
- Cc1nc2cc(N3CCC(Oc4ccccc4)C3=O)nn2c(N2CCC(C)(C)CC2)c1[C@H](OC(C)(C)C)C(=O)O (stereo partly drawn) [Example 31, (2S)-2-(tert-Butoxy)-2-(7-(4,4-dimethylpiperidin-1 yl)-5-methyl-2-(2-oxo-3-phenoxypyrrolidin-1-yl)pyrazolo[1,5-a]pyrimidin-6-yl)acetic acid] — 51-fold higher, 813 nM
- Cc1nc2cc(N3CCC(Oc4ccccc4)C3=O)nn2c(N2CCC(C)(C)CC2)c1[C@H](OC(C)(C)C)C(=O)O (stereo partly drawn) [Example 32, (2S)-2-(tert-Butoxy)-2-(7-(4,4-dimethylpiperidin-1-yl)-5-methyl-2-(2-oxo-3-phenoxypyrrolidin-1-yl)pyrazolo[1,5-a]pyrimidin-6-yl)acetic acid] — 21-fold higher, 339 nM
